Reference: US20230132202A1, “Polymeric Binder and High Molecular Weight Polymer Antifouling Compositions” (The University of British Columbia, priority 2020, published 2023)

Legend:
[1] = Drug release measurements from coated silicon wafers, UV-Vis; assay type: physicochemical
Description: Drug release measurements: The coated silicon wafers were added into the wells of 96 well-plate and immersed in PBS buffer (200 μL) was added to each well. At day 1 and day 7, the solution was collected and the drug concentration was measured using UV-Vis spectroscopy and standard curves prepared using pure bioactive agents. The released solution was diluted to 1 mL using PBS before the measurements.

[2] = cited from earlier work
[3] = cited from earlier work; remark: listed apart in the source
[4] = day 1, coated silicon wafer in PBS
[5] = day 7, coated silicon wafer in PBS

| Molecule | concentration of eluted drug [1, 4] | concentration of eluted drug [1, 5] | Water solubility [2] [mg/mL] | Net charge at pH 7.4 [3] |
| --- | --- | --- | --- | --- |
| CC(=O)O[C@@]12CO[C@@H]1C[C@H](O)[C@@]1(C)C(=O)[C@H](O)C3=C(C)[C@@H](OC(=O)[C@H](O)[C@@H](NC(=O)OC(C)(C)C)c4ccccc4)C[C@@](O)([C@@H](OC(=O)c4ccccc4)[C@H]21)C3(C)C [Docetaxel] | 12.5 ppm (microgram/mL) | 13.7 ppm (microgram/mL) | <0.01 | Neutral |
| CC(=O)O[C@H]1C(=O)[C@@]2(C)[C@H]([C@H](OC(=O)c3ccccc3)[C@]3(O)C[C@H](OC(=O)[C@H](O)[C@@H](NC(=O)c4ccccc4)c4ccccc4)C(C)=C1C3(C)C)[C@]1(OC(C)=O)CO[C@@H]1C[C@@H]2O [Paclitaxel] | 1.3 ppm (microgram/mL) | 1.4 ppm (microgram/mL) | – | – |
| CO[C@H]1/C=C/O[C@@]2(C)Oc3c(C)c(O)c4c(O)c(c(/C=N/N5CCN(C)CC5)c(O)c4c3C2=O)NC(=O)/C(C)=C\C=C\[C@H](C)[C@H](O)[C@@H](C)[C@@H](O)[C@@H](C)[C@H](OC(C)=O)[C@@H]1C [Rifampicin] | – | – | 0.0413 | – |
| NC[C@H]1O[C@H](O[C@H]2[C@H](O)[C@@H](O[C@H]3O[C@H](CO)[C@@H](O)[C@H](N)[C@H]3O)[C@H](N)C[C@@H]2N)[C@H](N)C[C@@H]1O [Tobramycin] | – | – | 53.7 | Neutral |
| Gentamicin | – | – | – | Neutral |
| Penicillin | – | – | >30 | Neutral |
